Here are results for 16 compounds from PMC11345844, “Non-Covalent Inhibitors of SARS-CoV-2 Papain-Like Protease (PLpro): In Vitro and In Vivo Antiviral Activity” (Journal of Medicinal Chemistry, 2024).

Data set [1] relates to A549-hACE2 cells. The settings on record: cited from earlier work.
Data set [2] has as its system Vero E6 cells. The settings on record: cited from earlier work.
Data set [3] is described as follows: Plasma exposure after 50 mg/kg i.p. in male C57BL/6 mice.
Data set [4] deals with SARS-CoV-2. The settings on record: read-out: Reported cell-based antiviral potency EC50; cited from earlier work.
For data set [5], the system named is PLpro. The note with it: cited from earlier work; for IC50: read-out: Reported enzyme inhibition potency IC50, see referenced publications for assay details.
Data set [6] in a line: in vivo. The note with it: male, hamster, plasma.
Data set [7] is described as follows: Human plasma stability.
The conditions of data set [8]: i.v. hamster, 2 mg/kg.
Data set [9] is described as follows: Plasma protein binding. The note with it: human.
Data set [10] in a line: in vitro. The settings on record: human.
The nature of data set [11]: in vivo. The settings on record: male, C57BL/6, mouse, plasma.
Data set [12] has as its system PLpro. The settings on record: compared with all inhibitors studied; cited from earlier work.
Data set [13] deals with SARS-CoV-2 (strain WA1). In words: Antiviral plaque assay in Vero cells with P-gp inhibitor CP-100356. The class given is cell-based.
In data set [14] the test system is SARS-CoV-2 (strain WA1). In kind it is cell-based.
The nature of data set [15]: Plasma PK of 32 (Figure S1).
Data set [16] can be described thus: in vivo. The note with it: C57BL/6, mouse, plasma, ip, 25 mg/kg.
Data set [17] is described as follows: Comparison of plasma PK of 10 and 42 (Figure S3). The settings on record: 25 mg/kg i.p. (Figure S3).
The conditions of data set [18]: 64 25 mg/kg i.p., between 0.5 to 5 h after administration.
The test system of data set [19] is COVID-19. The settings on record: human, in vivo, po; cited from earlier work.
Data set [20] relates to SARS-CoV-2. The settings on record: cited from earlier work.

Entries after “also recorded” stand apart in the source; their conditions may differ. Read-outs that look alike come from different tables or passages of the source.

Consider `Cc1ccc(NC2CNC2)cc1C(=O)N[C@H](C)c1cccc(-c2ccc(CN3CCCC3)s2)c1` [Compound 2], for which the “potency against viral infection” value in data set [1] and in [2] was “low micromolar potency” throughout. Besides, the toxicity observation result in [3] is given as “overt toxicity”. Further, the EC50 (in general, the concentration giving half of the maximal effect) in [4] was 1.2 ± 0.2 µM.

Consider `CC(=O)Nc1cccc(CNC(=O)C2CCN([C@H](C)c3cccc4ccccc34)CC2)c1` [Compound 3], for which the IC50 – broadly, the concentration that gives 50% inhibition – in data set [5] was 2.69 ± 0.34 µM.

Consider `Nc1ccc2cc3ccc(N)cc3nc2c1` [Compound 6, proflavine], for which the IC50 in [5] was 1.46 µM.

As for `COC(=O)/C=C/CNC(=O)CNC(=O)[C@H](CN)NC(=O)[C@H](CCc1nc2ccccc2s1)NC(C)=O` [Compound 8], the “Reported enzyme inhibition” value in data set [5] (at 100 μM) is “almost complete inhibition”.

With `Cc1ccc(NC2CNC2)cc1C(=O)N[C@H](C)c1cccc(-c2ccc(CNC3CCCC3)s2)c1` [Compound 10], the highest concentration (Cmax) (commonly the peak of the concentration-time curve) in data set [6] (iv, 2 mg/kg) was 2920 ± 474 ng/mL; in [6] (sc, 20 mg/kg) it was 1220 ± 276 ng/mL; in data set [11] (iv, 2 mg/kg) it was 734 ± 125 ng/mL; in data set [11] (sc, 50 mg/kg), 3190 ± 667 ng/mL. The “potency against viral infection” value in [1] and in [2] was “low micromolar potency” in each case. The plasma clobs (i.v. mouse, 2 mg/kg) is recorded as 111 ± 16 mL/min/kg and the plasma clobs in [8] is given as 75 ± 5 mL/min/kg. For the same compound, the bioavailability entry (i.v./s.c., mice and hamsters, minor species differences) is listed as “good”. The half-life (usually the time in which the quantity being followed falls by half) in [7] was 60 h. Further, in data set [9], the unbound share (fraction unbound) (usually the share of the substance not bound to proteins or other matrix) is 0.033. In data set [10], the CC50 was 43 ± 1.8 µM.

As for `Cc1ccc(NC2CNC2)cc1C(=O)N[C@H](C)c1cccc(-c2ccc(CN[C@H]3CC[C@@H](O)C3)s2)c1` [Compound 11], the off-rate entry in [12] is recorded as “lowest off-rate”. Besides, the “efficacy in inhibiting viral replication (plaque assay)” value in data set [13] is “least efficacious compound”.

For `Cc1ccc(NC2CNC2)cc1C(=O)N[C@H](C)c1cccc(-c2cc(C)c(CNC3CCCC3)s2)c1` [Compound 16, (R)-5-(Azetidin-3-ylamino)-N-(1-(3-(5-((cyclopentylamino)methyl)-4-methylthiophen-2-yl)phenyl)ethyl)-2 Methylbenzamide], the CC50 in [10] stood at 27 ± 1.4 µM.

As for `Cc1ccc(NC2CNC2)cc1C(=O)N[C@H](C)c1cccc(-c2ccc(CNC(=O)C3CCCC3)s2)c1` [Compound 32, (R)-5-(Azetidin-3-ylamino)-N-(1-(3-(5-(cyclopentanecarboxamidomethyl)thiophen-2-yl)phenyl)ethyl)-2-methylbenzamide], the “antiviral activity by RT-PCR of viral RNA” value in [14] is listed as “lack of activity”. In addition, the bioavailability administered i.p. result in [15] (25 mg/kg i.p. (Figure S1)) is on record as “good bioavailability”. In addition, the oral bioavailability result in data set [15] (p.o. 100 mg/kg in corn oil, gavage (Figure S1)) is “without oral bioavailability”. In addition, in data set [13], the “efficacy in inhibiting viral replication (plaque assay)” value is reported as “almost complete loss of antiviral activity”.

In [16], `Cc1ccc(NC2CNC2)cc1C(=O)N[C@H](C)c1cccc(-c2ccc(CN[C@H]3CC[C@@H](C(=O)O)C3)s2)c1` [Compound 39, (1R,3S)-3-(((5-(3-((R)-1-(5-(Azetidin-3-ylamino)-2-methylbenzamido)ethyl)phenyl)thiophen-2-yl)methyl)amino)cyclopentane-1-carboxylic Acid] showed a maximum concentration (Cmax) of 7910 ng/mL and a half-life of 2 h.

As for `Cc1ccc(OC2CNC2)cc1C(=O)N[C@H](C)c1cccc(-c2ccc(CN3CCCC3)s2)c1` [Compound 42, (R)-5-(Azetidin-3-yloxy)-2-methyl-N-(1-(3-(5-(pyrrolidin-1-ylmethyl)thiophen-2-yl)phenyl)ethyl)benzamide], in data set [17], the “in vivo exposure compared to 10” value is on record as “significantly lower exposure”. For the same compound, in data set [13], the “efficacy in inhibiting viral replication (plaque assay)” value is “relatively higher efficacy”.

Take `Cc1ccc(OC2CCNCC2)cc1C(=O)N[C@H](C)c1cccc(-c2ccc(CNC3CCCC3)s2)c1` [Compound 44, (R)-N-(1-(3-(5-((Cyclopentylamino)methyl)thiophen-2-yl)phenyl)ethyl)-2-methyl-5-(piperidin-4-yloxy)benzamide]: in [10], the CC50 turned out to be 22 ± 0.9 µM.

Turning to `Cc1ccc(OCCN)cc1C(=O)N[C@H](C)c1cccc(-c2ccc(CN3CCCC3)s2)c1` [Compound 48, (R)-5-(2-Aminoethoxy)-2-methyl-N-(1-(3-(5-(pyrrolidin-1-ylmethyl)thiophen-2-yl)phenyl)ethyl)benzamide], in [13], the “efficacy in inhibiting viral replication (plaque assay)” value is “low efficacy”.

Regarding `CC(=O)OC(C)OC(=O)N1CC(Nc2ccc(C)c(C(=O)N[C@H](C)c3cccc(-c4ccc(CNC(=O)C5CCCC5)s4)c3)c2)C1` (stereo partly drawn) [Compound 62, 1-Acetoxyethyl 3-((3-(((R)-1-(3-(5-(cyclopentanecarboxamidomethyl)thiophen-2-yl)phenyl)ethyl)carbamoyl)-4-methylphenyl)amino)azetidine-1-carboxylate], the “antiviral activity by RT-PCR of viral RNA” value in [14] is “not greatly improved”.

Regarding `Cc1ccc(NC2CNC2)cc1C(=O)N[C@H](C)c1cccc(-c2ccc(CN[C@H]3CC[C@@H](C(=O)OC[C@H]4O[C@@H](n5ccc(NO)nc5=O)[C@H](O)[C@@H]4O)C3)s2)c1` [Compound 64, ((3S,4R,5R)-3,4-Dihydroxy-5-(4-(hydroxyamino)-2-oxopyrimidin-1(2H)-yl)tetrahydrofuran-2-yl)methyl (1R,3S)-3-(((5-(3-((R)-1-(5-(azetidin-3-ylamino)-2-methylbenzamido)ethyl)phenyl)thiophen-2-yl)methyl)amino)cyclopentane-1-carboxylate], the “detection of mutual prodrug in plasma” value in [18] was “not detectable; also recorded: undetectable”.

As for `CC(C)C(=O)OC[C@H]1O[C@@H](n2cc/c(=N\O)[nH]c2=O)[C@H](O)[C@@H]1O` [Compound 65, Molnupiravir], the “efficacy against hospitalization or death” value in data set [19] is recorded as “about 30%”.

With `CC(C)(C)[C@H](NC(=O)C(F)(F)F)C(=O)N1C[C@H]2[C@@H]([C@H]1C(=O)N[C@H](C#N)C[C@@H]1CCNC1=O)C2(C)C` [nirmatrelvir], in data set [20], the “left-shift in the response caused by CP-100356” value was “ca. 100 fold”.
